Test results from PubChem BioAssay AID1963964 (Molecular Pharmacology Branch, DTP, NCI, 2024).

Test system: 997726-040-R-J2-PDC tumor spheroids, viability
Assay: Anticancer human tumor 997726-040-R-J2-PDC patient-derived squamous cell lung carcinoma cell line growth inhibition [PI3K]
Conditions: spheroids with HUVEC and MSC; for IC50: curve of first compound; for viability, T/C: stronger effect = lower value
How it was run: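 Agents were dosed from a top concentration near clinical Cmax (otherwise 10 microM) in half-log decrements, alone or combined with PI3K inhibitors. The spheroids contain tumor cells plus endothelial (HUVEC) and MSC stroma; viability is measured.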

[1] = second compound 0.0316 µM, first compound 0.0316 µM
[2] = second compound 0.0316 µM, first compound 0.1 µM
[3] = second compound 0.0316 µM, first compound 0.316 µM
[4] = second compound 0.0316 µM, first compound 1 µM
[5] = second compound 0.0316 µM, first compound 3.16 µM
[6] = second compound 0.0316 µM, first compound 10 µM
[7] = second compound 0.1 µM, first compound 0.0316 µM
[8] = second compound 0.1 µM, first compound 0.1 µM
[9] = second compound 0.1 µM, first compound 0.316 µM
[10] = second compound 0.1 µM, first compound 1 µM
[11] = second compound 0.1 µM, first compound 3.16 µM
[12] = second compound 0.1 µM, first compound 10 µM
[13] = second compound 0.316 µM, first compound 0.0316 µM
[14] = second compound 0.316 µM, first compound 0.1 µM
[15] = second compound 0.316 µM, first compound 0.316 µM
[16] = second compound 0.316 µM, first compound 1 µM
[17] = second compound 0.316 µM, first compound 3.16 µM
[18] = second compound 0.316 µM, first compound 10 µM
[19] = second compound 1 µM, first compound 0.0316 µM
[20] = second compound 1 µM, first compound 0.1 µM
[21] = second compound 1 µM, first compound 0.316 µM
[22] = second compound 1 µM, first compound 1 µM
[23] = second compound 1 µM, first compound 3.16 µM
[24] = second compound 1 µM, first compound 10 µM
[25] = second compound 3.16 µM, first compound 0.0316 µM
[26] = second compound 3.16 µM, first compound 0.1 µM
[27] = second compound 3.16 µM, first compound 0.316 µM
[28] = second compound 3.16 µM, first compound 1 µM
[29] = second compound 3.16 µM, first compound 3.16 µM
[30] = second compound 3.16 µM, first compound 10 µM
[31] = second compound 10 µM, first compound 0.0316 µM
[32] = second compound 10 µM, first compound 0.1 µM
[33] = second compound 10 µM, first compound 0.316 µM
[34] = second compound 10 µM, first compound 1 µM
[35] = second compound 10 µM, first compound 3.16 µM
[36] = second compound 10 µM, first compound 10 µM
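Further: spheroids exposed to compounds for seven days before readout.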

## C#Cc1c(F)ccc2cc(O)cc(-c3ncc4c(N5CC6CCC(C5)N6)nc(OCC56CCCN5CC(F)C6)nc4c3F)c12 (centres undefined) + CC(Nc1ncnc2nc[nH]c12)c1cc2cccc(Cl)c2c(=O)n1-c1ccccc1
Second compound 0.0316 µM
  IC50: > 10 µM
Second compound 0.1 µM
  IC50: > 10 µM
Second compound 0.316 µM
  IC50: > 10 µM
Second compound 1 µM
  IC50: > 10 µM
Second compound 3.16 µM
  IC50: > 10 µM
Second compound 10 µM
  IC50: < 0.0316 µM
[1]
  viability, T/C: 90.6%
[2]
  viability, T/C: 99.3%
[3]
  viability, T/C: 101%
[4]
  viability, T/C: 85.7%
[5]
  viability, T/C: 88.1%
[6]
  viability, T/C: 96%
[7]
  viability, T/C: 101%
[8]
  viability, T/C: 96.5%
[9]
  viability, T/C: 83.3%
[10]
  viability, T/C: 97.6%
[11]
  viability, T/C: 82.1%
[12]
  viability, T/C: 73.3%
[13]
  viability, T/C: 97.1%
[14]
  viability, T/C: 103%
[15]
  viability, T/C: 98%
[16]
  viability, T/C: 94%
[17]
  viability, T/C: 95.7%
[18]
  viability, T/C: 61.5%
[19]
  viability, T/C: 87.3%
[20]
  viability, T/C: 93.8%
[21]
  viability, T/C: 82.7%
[22]
  viability, T/C: 84.6%
[23]
  viability, T/C: 79.9%
[24]
  viability, T/C: 63.5%
[25]
  viability, T/C: 71.6%
[26]
  viability, T/C: 68.3%
[27]
  viability, T/C: 61.4%
[28]
  viability, T/C: 72.3%
[29]
  viability, T/C: 65.3%
[30]
  viability, T/C: 57.7%
[31]
  viability, T/C: 49.1%
[32]
  viability, T/C: 50.1%
[33]
  viability, T/C: 45.3%
[34]
  viability, T/C: 45.5%
[35]
  viability, T/C: 39.1%
[36]
  viability, T/C: 35.1%

## CNC(=O)c1ccc(N2C(=S)N(c3ccc(C#N)c(C(F)(F)F)c3)C(=O)C2(C)C)cc1F + Cc1nc(NC(=O)N2CCCC2C(N)=O)sc1-c1ccnc(C(C)(C)C(F)(F)F)c1
Second compound 0.0316 µM
  IC50: > 10 µM
Second compound 0.1 µM
  IC50: > 10 µM
Second compound 0.316 µM
  IC50: > 10 µM
Second compound 1 µM
  IC50: < 0.0316 µM
Second compound 3.16 µM
  IC50: < 0.0316 µM
Second compound 10 µM
  IC50: < 0.0316 µM
[1]
  viability, T/C: 74.4%
[2]
  viability, T/C: 82.2%
[3]
  viability, T/C: 80.9%
[4]
  viability, T/C: 89.3%
[5]
  viability, T/C: 81.9%
[6]
  viability, T/C: 78.8%
[7]
  viability, T/C: 74.5%
[8]
  viability, T/C: 81.3%
[9]
  viability, T/C: 73.5%
[10]
  viability, T/C: 69.7%
[11]
  viability, T/C: 70.5%
[12]
  viability, T/C: 71.1%
[13]
  viability, T/C: 51.3%
[14]
  viability, T/C: 65%
[15]
  viability, T/C: 54.5%
[16]
  viability, T/C: 57.9%
[17]
  viability, T/C: 48.9%
[18]
  viability, T/C: 54.6%
[19]
  viability, T/C: 41.7%
[20]
  viability, T/C: 44.2%
[21]
  viability, T/C: 37.5%
[22]
  viability, T/C: 38.2%
[23]
  viability, T/C: 39.9%
[24]
  viability, T/C: 39%
[25]
  viability, T/C: 32.7%
[26]
  viability, T/C: 29.3%
[27]
  viability, T/C: 26.9%
[28]
  viability, T/C: 29.5%
[29]
  viability, T/C: 30.4%
[30]
  viability, T/C: 25.5%
[31]
  viability, T/C: 16.1%
[32]
  viability, T/C: 16.9%
[33]
  viability, T/C: 12.6%
[34]
  viability, T/C: 13.2%
[35]
  viability, T/C: 11.9%
[36]
  viability, T/C: 9.07%
